Literature values in patent US11517522B2, “Aprepitant ready-to-use injection emulsion compositions” (priority 2020, dated 2022).

Key:
[1] = given orally; commercial nanoparticulate composition (Emend)
[2] = IV infusion
[3] = system: acute and delayed chemotherapy-induced nausea and vomiting; details: versus aprepitant

SMILES	solubility in acetonitrile (acetonitrile)	solubility in ethanol (ethanol)	solubility in isopropyl acetate (isopropyl acetate)	solubility in water (water)	bioavailability [1]	time for conversion to aprepitant [2]	comparison with aprepitant in prevention and control of acute and delayed chemotherapy-induced nausea and vomiting [3]
C[C@@H](O[C@H]1OCCN(Cc2n[nH]c(=O)[nH]2)[C@H]1c1ccc(F)cc1)c1cc(C(F)(F)F)cc(C(F)(F)F)c1 [Aprepitant, 5-([(2R, 3S)-2-((R)-1-[3,5-bis (trifluoromethyl)phenyl]ethoxy)-3-(4-fluoro-phenyl)morpholino]methyl)-1H-1,2,4-triazol-3(2H)-one]	slightly soluble	sparingly soluble	sparingly soluble	practically insoluble	60-65%	–	–
C[C@@H](O[C@H]1OCCN(Cc2nc(O)n(P(=O)(O)O)n2)[C@H]1c1ccc(F)cc1)c1cc(C(F)(F)F)cc(C(F)(F)F)c1 [Fosaprepitant, fosaprepitant dimeglumine]	–	–	–	–	–	less than 30 minutes	non-inferiority and bioequivalency
